pIC50: −log10 of the molar value.

The first test can be described thus: Inhibition of bovine topoisomerase I, using cleavable complex assay.
For `CCC1(O)C(=O)OCc2c1cc1n(c2=O)C/C(=C2\C(=O)Nc3ccc(Cl)cc32)C1=O` (configuration not stated) [7-[5-Chloro-2-oxo-1,2-dihydro-indol-(3E)-ylidene]-4-ethyl-4-hydroxy-1,4,7,8-tetrahydro-pyrano[3,4-f]indolizine-3,6,10-trione], the pIC50 was less than 4.00. `CC[C@]1(O)C(=O)OCc2c1cc1n(c2=O)C/C(=C2\C(=O)Nc3ccc(C)cc32)C1=O` [(R)-4-Ethyl-4-hydroxy-7-[5-methyl-2-oxo-1,2-dihydro-indol-(3E)-ylidene]-1,4,7,8-tetrahydro-pyrano[3,4-f]indolizine-3,6,10-trione]: the pIC50 was 5.74.

The nature of another test: Inhibitory concentration against topoisomerase I obtained from calf thymus.
As for `CCOC(=O)c1c2c(nc3cc4c(cc13)OCCO4)-c1cc3c(c(=O)n1C2)COC(=O)C3(O)CC` (configuration not stated) [ethyl 8-ethyl-8-hydroxy-9,12-dioxo-2,3,8,9,12,14-hexahydro-11H-[1,4]dioxino[2,3-g]pyrano[3',4':6,7]indolizino[1,2-b]quinoline-15-carboxylate], the pIC50 is 6.15.

For the molecule `CCC1(O)C(=O)OCc2c1cc1n(c2=O)Cc2c-1nc1cc3c(cc1c2C(=O)O)OCCO3` (configuration not stated) [8-ethyl-8-hydroxy-9,12-dioxo-2,3,8,9,12,14-hexahydro-11H-[1,4]dioxino[2,3-g]pyrano[3',4':6,7]indolizino[1,2-b]quinoline-15-carboxylic acid], the pIC50 was 4.62. In turn, `CC[C@]1(O)C(=O)OCc2c1cc1n(c2=O)Cc2c-1nc1ccccc1c2C(=O)O` [(R)-4-Ethyl-4-hydroxy-3,13-dioxo-3,4,12,13-tetrahydro-1H-2-oxa-6,12a-diaza-dibenzo[b,h]fluorene-11-carboxylic acid] gave a pIC50 of 5.68. Same read-out and setting: the value for `CC[C@]1(O)C(=O)OCc2c1cc1n(c2=O)Cc2c-1nc1ccc(C)cc1c2C(=O)O` [(R)-4-Ethyl-4-hydroxy-9-methyl-3,13-dioxo-3,4,12,13-tetrahydro-1H-2-oxa-6,12a-diaza-dibenzo[b,h]fluorene-11-carboxylic acid] was 5.72; that for `CC[C@]1(O)C(=O)OCc2c1cc1n(c2=O)Cc2c-1nc1ccc(F)cc1c2C(=O)O` [(R)-4-Ethyl-9-fluoro-4-hydroxy-3,13-dioxo-3,4,12,13-tetrahydro-1H-2-oxa-6,12a-diaza-dibenzo[b,h]fluorene-11-carboxylic acid] was 5.51; that for `CCC1(O)C(=O)OCc2c1cc1n(c2=O)Cc2c-1nc1ccc(F)cc1c2C(=O)O` (configuration not stated) [4-Ethyl-9-fluoro-4-hydroxy-3,13-dioxo-3,4,12,13-tetrahydro-1H-2-oxa-6,12a-diaza-dibenzo[b,h]fluorene-11-carboxylic acid] was 5.49. Still for that read-out and setting: the same measure for `CC[C@@]1(O)C(=O)OCc2c1cc1n(c2=O)Cc2c-1nc1ccc(F)cc1c2C(=O)O` [(S)-4-Ethyl-9-fluoro-4-hydroxy-3,13-dioxo-3,4,12,13-tetrahydro-1H-2-oxa-6,12a-diaza-dibenzo[b,h]fluorene-11-carboxylic acid]: less than 4.00. The molecule `CCC1(O)C(=O)OCc2c1cc1n(c2=O)Cc2c-1nc1cc(F)c(F)cc1c2C(=O)O` (configuration not stated) [4-Ethyl-8,9-difluoro-4-hydroxy-3,13-dioxo-3,4,12,13-tetrahydro-1H-2-oxa-6,12a-diaza-dibenzo[b,h]fluorene-11-carboxylic acid] gave a pIC50 of 5.82. `CCC1(O)C(=O)OCc2c1cc1n(c2=O)Cc2c-1nc1ccc(I)cc1c2C(=O)O` (configuration not stated) [4-Ethyl-4-hydroxy-9-iodo-3,13-dioxo-3,4,12,13-tetrahydro-1H-2-oxa-6,12a-diaza-dibenzo[b,h]fluorene-11-carboxylic acid] showed a pIC50 of 5.64. The molecule `CCC1(O)C(=O)OCc2c1cc1n(c2=O)Cc2c-1nc1cccc(I)c1c2C(=O)O` (configuration not stated) [4-Ethyl-4-hydroxy-10-iodo-3,13-dioxo-3,4,12,13-tetrahydro-1H-2-oxa-6,12a-diaza-dibenzo[b,h]fluorene-11-carboxylic acid] had a pIC50 of 5.89.

What is called pIC50 is −log10 of the IC50, conventionally taken in molar units. Low readings indicate a large IC50, high ones a small IC50.

The values are drawn from BindingDB's records for doi:10.1021/jm00006a008 (Glaxo Research Institute, 1995).
